# Assay results: patent US11160277B2, “Use of cholinium lysinate as an herbicide” (priority 2019, dated 2021)
# “Also recorded” adds a separate entry of the source.
# Experiments:
# Arabidopsis thaliana = experiment: Arabidopsis seedling root architecture screen on vertical agar plates; type: in vivo; conditions: for lateral root initiation (effect of treatment) / primary root growth (effect of treatment): 6 days of treatment, concentrations tested
# Excerpt: An initial dose-responded for Arabidopsis seeding growth across multiple orders of magnitude in concentration is developed, and then examined sub-lethal concentrations in greater detail. Plants are germinated and grown vertically on transparent agar plates until the emergence of the first set of true leaves (6-8 days), transferred to fresh plates with or without the compound of interest, and imaged at 0 and 6 days after transfer. Finally, a semi-automated image analysis method is used to score primary root growth and total lateral root number, common phenotypes in plant developmental biology (Lobet, Pagès, and Draye 2011).
# Arabidopsis ecotype Col-0 seeds are obtained from the Arabidopsis Biological Resource Center (ABRC). Seeds are surface sterilized by a brief wash in 70% (v/v) ethanol followed by incubation in 30% (v/v) sodium hypochlorite (commercial bleach) for 15 minutes. Seeds are subsequently rinsed 5 times in sterile water, and sown on ½ Murashige and Skoog (MS) agar. Seeds are stratified (2 days, 4° C. in the dark) before transfer to a growth chamber under a 10 h light:14 h dark (22° C.). Following germination, plants are grown until the appearance of the first set of true leaves (˜6 days) prior to transfer to fresh test or control agar. […] The change in root length is determined from the primary root length at transfer subtracted from the primary root length after 6 days of treatment.
# (§1) Rhizobacterial biomass for root inoculation experiments is generated by cultivating individual isolates at 30° C. in LB supplemented with 1% (w/v) dextrose, shaking at 200 RPM. Overnight cultures are diluted to an OD600 of 0.1 in fresh media then grown under the same conditions to an OD600 of 0.7. Pellets are centrifuged (2000 r.c.f.) for 10 min at room temperature, then resuspended in 1/10 volume sterile water. Plants are inoculated by momentarily submerging their roots into cell resuspensions, or in sterile water for mock-inoculated controls. Plants are transferred to fresh ½ MS agar plates immediately post-inoculation and grown as before.
# (§2) D-limonene, α-pinene, protocatechuate, p-coumarate, [C2C1im][OAc], or [Ch][Lys] are dissolved in molten ½ MS media where indicated. 1.2 M stock solutions of p-coumarate and 1.5 M stock solutions of protocatechuate are prepared in dimethylsulfoxide (DMSO) and ethanol, respectively, before their addition to growth media.
# (§3) Plants are lit from the sides and photographed using a Canon 550D camera; images are saved as JPEG files for further analysis. The contrast is adjusted to maximize root visibility, but any adjustments are applied uniformly. Root growth is quantified using ImageJ (Schneider, Rasband, and Eliceiri 2012) with the SmartRoot plugin using default parameters (Lobet, Pages, and Draye 2011).
# A. rhizogenes = experiment: Microbial growth in liquid culture (A. rhizogenes); type: cell-based; conditions: for microbial growth with the compound as sole carbon source: M9 minimal media
# Experimental: (§4) Whether inoculation with rhizobacteria alters the effect of the test compounds on plant growth is next tested. Two microbes, A. rhizogenes and Acinetobacter sp.
# Whether either [Ch][Lys] or [C2C1im][OAc] has an effect on A. rhizogenes is tested by growing a liquid culture in minimal media (M9, which contains only salts and nitrogen) supplemented with either 0.1 mM [Ch][Lys], 1 mM [C2C1im][OAc], or 1% w/v dextrose as the sole carbon source is tested.
# Choline, for instance, can be used as a precursor to the compatible solute glycine betaine in a process dependent on two genes, betA and betB, both of which are present in the A. rhizogenes genome (Levy et al. 2018). Glycine betaine is additionally known to improve the salt tolerance of both plants and microbes (Riou and Le Rudulier 1990; Hayashi et al. 1997). Therefore, whether [Ch][Lys] improves the salt tolerance of A. rhizogenes by growing the microbe in M9 supplemented with 1% w/v dextrose and either 0.1 mM [Ch][Lys], 400 mM NaCl, or both, is tested.
# (§5) Microbial strains are maintained in glycerol stocks stored at −80° C. Media used are Lysogeny broth (LB: 10 g/L tryptone, 5 g/L yeast extract, and 5 g/L NaCl) or M9 minimal media (M9: 6.8 g/L Na2HPO4, 3 g/L KH2PO4, 1 g/L NH4Cl, 0.5 g/L NaCl, 0.12 g/L MgSO4) as indicated. Liquid pre-cultures are inoculated with colonies from LB agar plates and grown overnight at 30° C., shaking at 200 RPM. Precultures are back-diluted to an OD600 0.1 into fresh media and grown until OD600 0.6, and then 2 μL per well is used to inoculate 96 well microtiter plates in a total volume of 100 μL of the media and treatment conditions indicated. Optical density is tracked at a wavelength of 600 nm using a Synergy 4 plate reader (BioTek Instruments) kept at 30° C. and shaking on “high” setting.
# Acinetobacter sp. 01 = experiment: Microbial growth in liquid culture (Acinetobacter sp. 01); type: cell-based
# Experimental: as §4, §5
# Sorghum bicolor = experiment: Sorghum seedling root growth on vertical agar plates; type: in vivo; conditions: for effect on seedlings transferred to solid media: similar results as Arabidopsis; for mean crown root growth / mean lateral root growth: 5 mM [Ch][Lys], 8 days
# Excerpt: Arabidopsis is useful as a model system because of its fast generation time, ease of handling, and the availability of relevant genetic tools. The effects of these treatments on a second plant species of economic relevance are compared. Sorghum is selected, since it is both evolutionarily distant from Arabidopsis, but also an agronomically important plant for food, forage, and biomass, and is cultivated over 3,300,000 ha in the United States and 40,000,000 ha globally (Langholtz, Stokes B. J., and Eaton 2016).
# Sorghum cultivar BTx623 seeds are a kind gift from Dr. Jeff Dahlberg, UCANR. Seeds are surface sterilized by rinsing 5 times in sterile water, briefly washing in 70% (v/v) ethanol+0.01% (v/v) Triton-X 100 and incubating in bleach+0.01% (v/v) Triton-X 100 on a shaker for 20 minutes. They are then rinsed in sterile water a further 3 times, sown on plates, and grown as above (although without stratification).
# as §1, §2, §3
# Arabidopsis roots = conditions: 0.1 mM
# Experimental: FIG. 4G. […] Representative fluorescent microscopy images of Arabidopsis roots following propidium iodide staining. I: Control; II: 0.1 mM [Ch][Lys]; III: inoculation with A. rhizogenes; IV: 0.1 mM [Ch][Lys] and A. rhizogenes. The scale bar=200 μm.
# Seedlings are inoculated or chemically treated as previously described. After the treatment period roots are gently washed in sterile water and the cell walls are stained for 1 min in […] propidium iodide (PI, Sigma), then briefly rinsed in sterile water. Cellular morphology is determined using a Zeiss LSM 710 confocal microscope with PI fluorescence emission at 550-680 nm and 488 nm excitation.
# [1] = system: mammals, fish, and microbes; conditions: reported (Sun et al. 2014); cited from earlier work
# [2] = 1 mM protocatechuate, inoculated with A. rhizogenes
# [3] = 1 mM protocatechuate, uninoculated
# [4] = 0.1 mM [Ch][Lys], inoculated with A. rhizogenes, 6 days
# [5] = 0.1 mM [Ch][Lys], uninoculated, 6 days
molecule,measurement,setting,value
C=C(C)C1CC=C(C)CC1 [D-limonene],plants showing complete inhibition of primary root growth,Arabidopsis thaliana; regardless of the concentration tested,at least 20%
same,lateral root growth,"Arabidopsis thaliana; uninoculated, 6 days",unaffected
same,changes in root architecture / dose-response,"Arabidopsis thaliana; uninoculated, between and within plates",inconsistent changes in root architecture; also recorded: no dose-response relationship was obvious
"[Cl-].[Na+] [NaCl, reference compound]",A. rhizogenes growth rate,"A. rhizogenes; M9 + 1% w/v dextrose, 400 mM NaCl",reduces the A. rhizogenes growth rate
"CCn1cc[n+](C)c1 [[C2C1im][OAc], 1-ethyl-3-methylimidazolium acetate]","lateral root initiation, effect of inoculation","Arabidopsis thaliana; 1 mM [C2C1im][OAc], inoculated with A. rhizogenes",no effect
same,mean primary root growth,"Arabidopsis thaliana; 1 mM [C2C1im][OAc], inoculated with A. rhizogenes, 6 days",2.912 cm
same,mean primary root growth,"Arabidopsis thaliana; 1 mM [C2C1im][OAc], inoculated with Acinetobacter sp. 01, 6 days",4.011 cm
same,mean primary root growth,"Arabidopsis thaliana; 1 mM [C2C1im][OAc], uninoculated, 6 days",1.904 cm
same,root growth,"Arabidopsis thaliana; 1 mM, uninoculated",overall reduction in root growth
same,lateral root initiation (effect of treatment),Arabidopsis thaliana; uninoculated,dose dependent reduction
same,primary root growth (effect of treatment),Arabidopsis thaliana; uninoculated,dose dependent reduction
same,effect on growth of the microbe,A. rhizogenes; 1 mM,does not alter the growth
same,microbial growth with the compound as sole carbon source,A. rhizogenes; 1 mM [C2C1im][OAc],Neither IL allows microbial growth
same,effect on growth of the microbe,Acinetobacter sp. 01; 1 mM,does not alter the growth
O=C(O)/C=C/c1ccc(O)cc1 [p-coumarate],lateral root initiation (effect of treatment),Arabidopsis thaliana; uninoculated,dose dependent reduction
same,primary root growth (effect of treatment),Arabidopsis thaliana; uninoculated,dose dependent reduction
O=C(O)c1ccc(O)c(O)c1 [protocatechuate],"primary root curvature, median skew to the right from that of untreated plants",Arabidopsis thaliana; 1 mM,200
same,mean lateral root number (lateral root initiation),Arabidopsis thaliana; [2],2.214
same,mean primary root growth,Arabidopsis thaliana; [2],0.631 cm
same,mean lateral root number (lateral root initiation),Arabidopsis thaliana; [3],7.989
same,mean primary root growth,Arabidopsis thaliana; [3],2.293 cm
same,lateral root initiation,"Arabidopsis thaliana; 1 mM, uninoculated, 6 days",increase lateral root initiation
same,lateral root growth,"Arabidopsis thaliana; uninoculated, 6 days",enhanced
same,primary root growth (effect of treatment),Arabidopsis thaliana; uninoculated,reduce primary root growth at all concentrations tested
CC1=CCC2CC1C2(C)C (stereo not drawn) [α-pinene],lateral root initiation (effect of treatment),Arabidopsis thaliana; uninoculated,dose dependent reduction
same,primary root growth (effect of treatment),Arabidopsis thaliana; uninoculated,dose dependent reduction
cholinium lysinate [[Ch][Lys]],effect on seedlings transferred to solid media,Arabidopsis thaliana; 0.1 mM,reduced root growth
same,mean lateral root number (lateral root initiation),Arabidopsis thaliana; [4],4.889
same,mean primary root growth,Arabidopsis thaliana; [4],2.241 cm
same,"root growth versus uninoculated, [Ch][Lys]-treated controls","Arabidopsis thaliana; 0.1 mM [Ch][Lys], inoculated with Pool A",do not differ significantly
same,mean primary root growth,"Arabidopsis thaliana; 0.1 mM [Ch][Lys], inoculated with Pool B",2.072 cm
same,mean lateral root number (lateral root initiation),Arabidopsis thaliana; [5],7.069
same,mean primary root growth,Arabidopsis thaliana; [5],0.858 cm
same,primary root growth,"Arabidopsis thaliana; 0.1 mM, uninoculated",significantly inhibit
same,lateral root initiation,"Arabidopsis thaliana; 0.1 mM, uninoculated, 6 days",increase lateral root initiation
same,effect on seedlings transferred to solid media,Arabidopsis thaliana; 5 mM,complete chlorosis and plant death
same,concentration that reduces the root growth,Arabidopsis thaliana; A. thaliana,At least 0.1 mM
same,concentration sufficient to completely inhibit primary root growth,Arabidopsis thaliana; Arabidopsis,0.1 mM
same,"root growth, effect of inoculation","Arabidopsis thaliana; [Ch][Lys] treatment, inoculated with Acinetobacter sp. 01",no significant effect
same,application rate equivalent to the concentration that inhibits primary root growth,Arabidopsis thaliana; equates to 0.1 mM,104 g/ha2
same,estimated appropriate application rate as herbicide,Arabidopsis thaliana; estimate,100-500 g/ha
same,primary root growth (effect of treatment),Arabidopsis thaliana; uninoculated,reduce primary root growth at all concentrations tested
same,effect on seedlings transferred to solid media,Sorghum bicolor; 0.1 mM,reduced root growth
same,mean crown root growth,Sorghum bicolor; inoculated with A. rhizogenes,5.028 cm
same,mean lateral root growth,Sorghum bicolor; inoculated with A. rhizogenes,1.051 cm
same,mean crown root growth,Sorghum bicolor; uninoculated,3.267 cm
same,mean lateral root growth,Sorghum bicolor; uninoculated,0.464 cm
same,branching lateral roots and crown root growth,"Sorghum bicolor; 5 mM, over 8 days",almost completely inhibit
same,effect on seedlings transferred to solid media,Sorghum bicolor; 5 mM,complete chlorosis and plant death
same,concentration that reduces the root growth,Sorghum bicolor; S. bicolor,At least 5 mM
same,concentration tolerated by the microbe,A. rhizogenes; A. rhizogenes,10 mM
same,A. rhizogenes growth rate under NaCl,"A. rhizogenes; M9 + 1% w/v dextrose, 400 mM NaCl plus 0.1 mM [Ch][Lys]",partially rescued
same,microbial growth with the compound as sole carbon source,A. rhizogenes; 0.1 mM [Ch][Lys],Neither IL allows microbial growth
same,concentration tolerated by the microbe,Acinetobacter sp. 01; Acinetobacter sp. 01,10 mM
same,root cell morphology phenotype caused by [Ch][Lys],Arabidopsis roots; A. rhizogenes treated roots,abolished
same,root cell morphology,Arabidopsis roots; uninoculated,irregular expansion of epidermal cells of the root apical meristem (RAM) and stimulates formation of ectopic root hairs
same,"toxicity to mammals, fish, and microbes",[1],low toxicity
